System: 327498-153-R-J2-PDC multicell spheroid viability
Assay: Anticancer human tumor 327498-153-R-J2-PDC patient-derived uterine carcinosarcoma cell line growth inhibition [IpAb]
Conditions: for IC50: curve of first compound; for viability, T/C: stronger effect = lower value
Source text: Combinatorial screen of targeted agents with ipatasertib and abemaciclib in multi-cell type tumor spheroids
A high-throughput screen of multi-cell type tumor spheroids was designed to identify active combinations of targeted small molecules and ipatasertib or abemaciclib. Complex spheroids include a stromal component modeled by human endothelial cells (HUVEC) and fibroblasts modeled by human mesenchymal stem cells (MSCs). The concentration ranges selected for each drug and investigational agent were based upon clinically achievable concentrations if the clinical Cmax of the agent was known.
Compounds. The drugs and investigational agents: ipatasertib (NSC767898), abemaciclib(NSC768073), selumetinib (NSC741078), trametinib (758246), adavosertib (NSC754352), everolimus (NSC733504), sapanisertib (NSC764658), vemurafenib (NSC761431), venetoclax (NSC766270), copanlisib (NSC809693), apelisib (NSC765974), palbociblib (NSC758247), vemurafenib (NSC761431), dabrafenib (NSC764134), ravoxertinib (NSC781343), BMS-387032 (NSC767048), sotorasib (NSC818433), talazoparib (NSC767125) and afursertib (NSC778305), were obtained from the National Cancer Institute (NCI) Developmental Therapeutics Program Chemical Repository. The FDA-approved anticancer drug set is available from the NCI Developmental Therapeutics Program. […] The stock solutions were prepared in dimethyl sulfoxide (DMSO, Sigma-Aldrich, St. Louis, MO, cat. D2650) at 800-fold the tested concentration and stored at -70 degrees C prior to their use. All drugs and investigational agents were tested over a range starting from a high concentration at or near the clinical Cmax and decreasing in half-log increments. If the clinical Cmax for an agent had not been determined, the highest concentration tested was 10 microM.
NCI60 Cell Culture. NCI60 cell lines were obtained from the NCI Developmental Therapeutics Program Tumor Repository. For each lot of cells, the Repository performed Applied Biosystems AmpFLSTR Identifiler testing with PCR amplification to confirm consistency with the published Identifier STR profile for each cell line. Cells were kept in continuous culture for no more than 20 passages. The optimal seeding densities for each of the cell lines at each time point assessed were determined prior to performing the concentration response studies. Briefly, the NCI60 human tumor lines were grown as monolayers in RPMI 1640 medium supplemented with 10% FBS and 2 mmol/L L-glutamine.
An additional 9 lines were from the NCI60 cell line panel including MDA-MB-231 breast carcinoma, MDA-MB-468 breast carcinoma, MCF7 breast carcinoma, Hs578T breast carcinoma, MALME-3M melanoma, SK-MEL-2 melanoma, SK-OV-3 ovarian carcinoma, DU-145 prostate carcinoma, PC-3 prostate carcinoma, all cell lines along with major genetic alterations are listed on Table 2. Pooled donor human umbilical vein endothelial cells (HUVEC, Lonza, cat. CC-2519) and human mesenchymal stem cells (hMSC, Lonza, cat. PT-2501) were purchased from Lonza (Walkersville, MD).
PDMR cell lines were grown in complete medium (DC medium): Dulbecco's modified Eagle's medium (DMEM)/F12 supplemented with 5% fetal bovine serum (FBS), 2 mM L-glutamine, 100 U/mL penicillin and 100 µg/ml streptomycin, 0.4 µg/ml hydrocortisone, 10 ng/ml epidermal growth factor (EGF) recombinant human protein, 24 µg/mL adenine, and 0.1 mg/mL primocin. During culture from frozen stock vials, PDMR cells were cultured in the same medium containing 10 µM Y-27632 (see Table 3). The PDCs were cultured in complete DMEM/F12 media without 10 microM Y-27632 dihydrochloride for at least two passages prior to the screen. The pooled donor HUVEC and hMSC were cultured in endothelial cell growth medium 2 (PromoCell, Heidelberg, Germany, cat. C-22011) and mesenchymal stem cell growth medium 2 (PromoCell, cat. C-28009), respectively. For all experiments, HUVEC and hMSC were used at passages </=5.
[…]

[1] = second compound 0.1 µM, first compound 0.0316 µM
[2] = second compound 0.1 µM, first compound 0.1 µM
[3] = second compound 0.1 µM, first compound 0.316 µM
[4] = second compound 0.1 µM, first compound 1 µM
[5] = second compound 0.1 µM, first compound 3.16 µM
[6] = second compound 0.1 µM, first compound 10 µM
[7] = second compound 0.316 µM, first compound 0.0316 µM
[8] = second compound 0.316 µM, first compound 0.1 µM
[9] = second compound 0.316 µM, first compound 0.316 µM
[10] = second compound 0.316 µM, first compound 1 µM
[11] = second compound 0.316 µM, first compound 3.16 µM
[12] = second compound 0.316 µM, first compound 10 µM
[13] = second compound 1 µM, first compound 0.0316 µM
[14] = second compound 1 µM, first compound 0.1 µM
[15] = second compound 1 µM, first compound 0.316 µM
[16] = second compound 1 µM, first compound 1 µM
[17] = second compound 1 µM, first compound 3.16 µM
[18] = second compound 1 µM, first compound 10 µM
[19] = second compound 3.16 µM, first compound 0.0316 µM
[20] = second compound 3.16 µM, first compound 0.1 µM
[21] = second compound 3.16 µM, first compound 0.316 µM
[22] = second compound 3.16 µM, first compound 1 µM
[23] = second compound 3.16 µM, first compound 3.16 µM
[24] = second compound 3.16 µM, first compound 10 µM
[25] = second compound 10 µM, first compound 0.0316 µM
[26] = second compound 10 µM, first compound 0.1 µM
[27] = second compound 10 µM, first compound 0.316 µM
[28] = second compound 10 µM, first compound 1 µM
[29] = second compound 10 µM, first compound 3.16 µM
[30] = second compound 10 µM, first compound 10 µM
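Note: spheroids exposed to agents for 7 days.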
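Throughout, for viability, T/C: 100% = DMSO vehicle control viability.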

C=CCn1c(=O)c2cnc(Nc3ccc(N4CCN(C)CC4)cc3)nc2n1-c1cccc(C(C)(C)O)n1 + CC(C)NCC(C(=O)N1CCN(c2ncnc3c2C(C)CC3O)CC1)c1ccc(Cl)cc1
IC50 (second compound 0.1 µM): 259 nM | IC50 (second compound 0.316 µM): 151 nM | IC50 (second compound 1 µM): 101 nM | IC50 (second compound 3.16 µM): < 31.6 nM | IC50 (second compound 10 µM): < 31.6 nM | viability, T/C [1]: 90.3% | viability, T/C [2]: 83.2% | viability, T/C [3]: 43.2% | viability, T/C [4]: 3.61% | viability, T/C [5]: 3.91% | viability, T/C [6]: 6.69% | viability, T/C [7]: 73.8% | viability, T/C [8]: 65.2% | viability, T/C [9]: 22.6% | viability, T/C [10]: 3.04% | viability, T/C [11]: 3.47% | viability, T/C [12]: 6.17% | viability, T/C [13]: 49.6% | viability, T/C [14]: 50.5% | viability, T/C [15]: 17.3% | viability, T/C [16]: 3.25% | viability, T/C [17]: 2.88% | viability, T/C [18]: 5.72% | viability, T/C [19]: 45.1% | viability, T/C [20]: 35.2% | viability, T/C [21]: 11.5% | viability, T/C [22]: 3.53% | viability, T/C [23]: 3.4% | viability, T/C [24]: 4.64% | viability, T/C [25]: 30.4% | viability, T/C [26]: 27.4% | viability, T/C [27]: 8.25% | viability, T/C [28]: 3% | viability, T/C [29]: 3.44% | viability, T/C [30]: 4.49%

CC(C)n1nc(-c2ccc3oc(N)nc3c2)c2c(N)ncnc21 + CC(C)NCC(C(=O)N1CCN(c2ncnc3c2C(C)CC3O)CC1)c1ccc(Cl)cc1
IC50 (second compound 0.1 µM): 5.3 nM | IC50 (second compound 0.316 µM): 1.76 nM | IC50 (second compound 1 µM): 0.442 nM | IC50 (second compound 3.16 µM): < 0.316 nM | IC50 (second compound 10 µM): < 0.316 nM | viability, T/C (second compound 0.1 µM, first compound 0.000316 µM): 83.5% | viability, T/C (second compound 0.1 µM, first compound 0.001 µM): 80% | viability, T/C (second compound 0.1 µM, first compound 0.00316 µM): 60.3% | viability, T/C (second compound 0.1 µM, first compound 0.01 µM): 36.6% | viability, T/C [1]: 20.7% | viability, T/C [2]: 15.7% | viability, T/C (second compound 0.316 µM, first compound 0.000316 µM): 74.6% | viability, T/C (second compound 0.316 µM, first compound 0.001 µM): 56.5% | viability, T/C (second compound 0.316 µM, first compound 0.00316 µM): 44% | viability, T/C (second compound 0.316 µM, first compound 0.01 µM): 24.4% | viability, T/C [7]: 16.6% | viability, T/C [8]: 13.3% | viability, T/C (second compound 1 µM, first compound 0.000316 µM): 55.1% | viability, T/C (second compound 1 µM, first compound 0.001 µM): 36.9% | viability, T/C (second compound 1 µM, first compound 0.00316 µM): 28.4% | viability, T/C (second compound 1 µM, first compound 0.01 µM): 16.8% | viability, T/C [13]: 10.6% | viability, T/C [14]: 11% | viability, T/C (second compound 3.16 µM, first compound 0.000316 µM): 39.2% | viability, T/C (second compound 3.16 µM, first compound 0.001 µM): 29.1% | viability, T/C (second compound 3.16 µM, first compound 0.00316 µM): 19.9% | viability, T/C (second compound 3.16 µM, first compound 0.01 µM): 11.5% | viability, T/C [19]: 8.42% | viability, T/C [20]: 7.91% | viability, T/C (second compound 10 µM, first compound 0.000316 µM): 26.9% | viability, T/C (second compound 10 µM, first compound 0.001 µM): 24% | viability, T/C (second compound 10 µM, first compound 0.00316 µM): 13.7% | viability, T/C (second compound 10 µM, first compound 0.01 µM): 9.73% | viability, T/C [25]: 6.51% | viability, T/C [26]: 6.09%

CC1(C)CCC(CN2CCN(c3ccc(C(=O)NS(=O)(=O)c4ccc(NCC5CCOCC5)c([N+](=O)[O-])c4)c(Oc4cnc5[nH]ccc5c4)c3)CC2)=C(c2ccc(Cl)cc2)C1 + CC(C)NCC(C(=O)N1CCN(c2ncnc3c2C(C)CC3O)CC1)c1ccc(Cl)cc1
IC50 (second compound 0.1 µM): 5370 nM | IC50 (second compound 0.316 µM): 3980 nM | IC50 (second compound 1 µM): 3500 nM | IC50 (second compound 3.16 µM): < 31.6 nM | IC50 (second compound 10 µM): < 31.6 nM | viability, T/C [1]: 92.4% | viability, T/C [2]: 96.7% | viability, T/C [3]: 88.8% | viability, T/C [4]: 91.6% | viability, T/C [5]: 84.7% | viability, T/C [6]: 9.23% | viability, T/C [7]: 84.1% | viability, T/C [8]: 76.2% | viability, T/C [9]: 73% | viability, T/C [10]: 71.5% | viability, T/C [11]: 62.9% | viability, T/C [12]: 5.02% | viability, T/C [13]: 61.5% | viability, T/C [14]: 57.1% | viability, T/C [15]: 56% | viability, T/C [16]: 51.7% | viability, T/C [17]: 54.8% | viability, T/C [18]: 2.82% | viability, T/C [19]: 43.8% | viability, T/C [20]: 43.9% | viability, T/C [21]: 43.5% | viability, T/C [22]: 42.7% | viability, T/C [23]: 42.9% | viability, T/C [24]: 1.99% | viability, T/C [25]: 34.7% | viability, T/C [26]: 30.8% | viability, T/C [27]: 31.3% | viability, T/C [28]: 31.1% | viability, T/C [29]: 26.6% | viability, T/C [30]: 0.91%

CCCS(=O)(=O)Nc1ccc(F)c(C(=O)c2c[nH]c3ncc(-c4ccc(Cl)cc4)cc23)c1F + CC(C)NCC(C(=O)N1CCN(c2ncnc3c2C(C)CC3O)CC1)c1ccc(Cl)cc1
IC50 (second compound 0.1 µM): > 10000 nM | IC50 (second compound 0.316 µM): > 10000 nM | IC50 (second compound 1 µM): > 10000 nM | IC50 (second compound 3.16 µM): 2360 nM | IC50 (second compound 10 µM): < 31.6 nM | viability, T/C [1]: 94.3% | viability, T/C [2]: 101% | viability, T/C [3]: 96.7% | viability, T/C [4]: 101% | viability, T/C [5]: 101% | viability, T/C [6]: 86.7% | viability, T/C [7]: 72.2% | viability, T/C [8]: 74% | viability, T/C [9]: 80.6% | viability, T/C [10]: 81.1% | viability, T/C [11]: 85.3% | viability, T/C [12]: 63% | viability, T/C [13]: 57.5% | viability, T/C [14]: 58.2% | viability, T/C [15]: 62.9% | viability, T/C [16]: 76.3% | viability, T/C [17]: 74.1% | viability, T/C [18]: 49% | viability, T/C [19]: 49.6% | viability, T/C [20]: 50.3% | viability, T/C [21]: 52% | viability, T/C [22]: 56% | viability, T/C [23]: 54.4% | viability, T/C [24]: 42.1% | viability, T/C [25]: 40.1% | viability, T/C [26]: 41.8% | viability, T/C [27]: 44.2% | viability, T/C [28]: 40.7% | viability, T/C [29]: 41.2% | viability, T/C [30]: 23.4%

Source: PubChem BioAssay AID2060341 (Molecular Pharmacology Branch, DTP, NCI, 2025)
